Laboratory results taken from US20230085307A1, “PYRIDAZINONE COMPOUND AND HERBICIDE” (NISSAN CHEMICAL CORPORATION, priority 2019, published 2023).

Experiments:
wild oat [1] = assay: Test Example 5: herbicidal effect by foliage application, plastic box (Table 20, symbol I); type: in vivo, wild oat (Avena fatua); conditions: foliage application, 320 g/ha, three weeks after application
Summary of the method: (§1)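 Plants sown in sterilized diluvial soil and grown 14 days in a greenhouse at 25° C to 30° C, then sprayed on the foliage with the compound's emulsion diluted in water to a predetermined herbicide amount. Injury to weeds and crops scored three weeks after application on a visual rating scale.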

rice flat sedge = assay: Test Example 3: herbicidal effect by foliage application, Wagner pot (Table 18, symbol E); type: in vivo, rice flat sedge (Cyperus iria)
Summary of the method: (§2)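 Plants were sown in alluvial soil held under 0.1–0.5 cm standing water and grown 14 days in a greenhouse at 25–30 °C. An emulsifiable formulation, water-diluted to the set dose, was then sprayed onto the foliage, and effects were scored three weeks later using previously defined criteria.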

barnyard grass [2] = assay: Test Example 4: herbicidal effect by soil treatment (Table 19, symbol H); type: in vivo, barnyard grass (Echinochloa crus-galli); conditions: amount of applied herbicide 320 g/ha
Summary of the method: (§3)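 Seeds were sown in sterilized diluvial soil and covered with about 1.5 cm of soil. An emulsion formulation diluted with water to a predetermined herbicide amount was sprayed evenly onto the soil surface. Plants grew in a greenhouse at 25° C. to 30° C., and the effect was scored three weeks after application using criteria from an earlier test.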

false cleavers [3] = assay: Test Example 5: herbicidal effect by foliage application, plastic box (Table 20, symbol Q); type: in vivo, false cleavers (Galium spurium); conditions: foliage application, 320 g/ha, three weeks after application
Summary of the method: as §1

windgrass [4] = assay: Test Example 5: herbicidal effect by foliage application, plastic box (Table 20, symbol L); type: in vivo, windgrass (Apera spica-venti); conditions: foliage application, 320 g/ha, three weeks after application
Summary of the method: as §1

lambsquarters [5] = assay: Test Example 4: herbicidal effect by soil treatment (Table 19, symbol O); type: in vivo, lambsquarters (Chenopodium album); conditions: amount of applied herbicide 320 g/ha
Summary of the method: as §3

false cleavers [6] = assay: Test Example 4: herbicidal effect by soil treatment (Table 19, symbol Q); type: in vivo, false cleavers (Galium spurium); conditions: amount of applied herbicide 320 g/ha
Summary of the method: as §3

wild oat [7] = assay: Test Example 4: herbicidal effect by soil treatment (Table 19, symbol I); type: in vivo, wild oat (Avena fatua); conditions: amount of applied herbicide 320 g/ha
Summary of the method: as §3

windgrass [8] = assay: Test Example 4: herbicidal effect by soil treatment (Table 19, symbol L); type: in vivo, windgrass (Apera spica-venti); conditions: amount of applied herbicide 320 g/ha
Summary of the method: as §3

green foxtail [9] = assay: Test Example 4: herbicidal effect by soil treatment (Table 19, symbol G); type: in vivo, green foxtail (Setaria viridis); conditions: amount of applied herbicide 320 g/ha
Summary of the method: as §3

southern crabgrass [10] = assay: Test Example 4: herbicidal effect by soil treatment (Table 19, symbol F); type: in vivo, southern crabgrass (Digitaria ciliaris); conditions: amount of applied herbicide 320 g/ha
Summary of the method: as §3

green foxtail [11] = assay: Test Example 5: herbicidal effect by foliage application, plastic box (Table 20, symbol G); type: in vivo, green foxtail (Setaria viridis); conditions: foliage application, 320 g/ha, three weeks after application
Summary of the method: as §1

blackgrass [12] = assay: Test Example 5: herbicidal effect by foliage application, plastic box (Table 20, symbol J); type: in vivo, blackgrass (Alopecurus myosuroides); conditions: foliage application, 320 g/ha, three weeks after application
Summary of the method: as §1

Italian ryegrass [13] = assay: Test Example 4: herbicidal effect by soil treatment (Table 19, symbol K); type: in vivo, Italian ryegrass (Lolium multiflorum); conditions: amount of applied herbicide 320 g/ha
Summary of the method: as §3

chickweed [14] = assay: Test Example 5: herbicidal effect by foliage application, plastic box (Table 20, symbol P); type: in vivo, common chickweed (Stellaria media); conditions: foliage application, 320 g/ha, three weeks after application
Summary of the method: as §1

Chinese sprangletop = assay: Test Example 3: herbicidal effect by foliage application, Wagner pot (Table 18, symbol D); type: in vivo, chinese sprangletop (Leptochloa chinensis)
Summary of the method: as §2

redroot pigweed [15] = assay: Test Example 5: herbicidal effect by foliage application, plastic box (Table 20, symbol N); type: in vivo, redroot pigweed (Amaranthus retroflexus); conditions: foliage application, 320 g/ha, three weeks after application
Summary of the method: as §1

velvetleaf [16] = assay: Test Example 5: herbicidal effect by foliage application, plastic box (Table 20, symbol M); type: in vivo, velvetleaf (Abutilon theophrasti); conditions: foliage application, 320 g/ha, three weeks after application
Summary of the method: as §1

barnyard grass [17] = assay: Test Example 5: herbicidal effect by foliage application, plastic box (Table 20, symbol H); type: in vivo, barnyard grass (Echinochloa crus-galli); conditions: foliage application, 320 g/ha, three weeks after application
Summary of the method: as §1

velvetleaf [18] = assay: Test Example 4: herbicidal effect by soil treatment (Table 19, symbol M); type: in vivo, velvetleaf (Abutilon theophrasti); conditions: amount of applied herbicide 320 g/ha
Summary of the method: as §3

persian speedwell [19] = assay: Test Example 5: herbicidal effect by foliage application, plastic box (Table 20, symbol R); type: in vivo, Persian speedwell (Veronica persica); conditions: foliage application, 320 g/ha, three weeks after application
Summary of the method: as §1

chickweed [20] = assay: Test Example 4: herbicidal effect by soil treatment (Table 19, symbol P); type: in vivo, common chickweed (Stellaria media); conditions: amount of applied herbicide 320 g/ha
Summary of the method: as §3

Italian ryegrass [21] = assay: Test Example 5: herbicidal effect by foliage application, plastic box (Table 20, symbol K); type: in vivo, Italian ryegrass (Lolium multiflorum); conditions: foliage application, 320 g/ha, three weeks after application
Summary of the method: as §1

southern crabgrass [22] = assay: Test Example 5: herbicidal effect by foliage application, plastic box (Table 20, symbol F); type: in vivo, southern crabgrass (Digitaria ciliaris); conditions: foliage application, 320 g/ha, three weeks after application
Summary of the method: as §1

lambsquarters [23] = assay: Test Example 5: herbicidal effect by foliage application, plastic box (Table 20, symbol O); type: in vivo, lambsquarters (Chenopodium album); conditions: foliage application, 320 g/ha, three weeks after application
Summary of the method: as §1

persian speedwell [24] = assay: Test Example 4: herbicidal effect by soil treatment (Table 19, symbol R); type: in vivo, Persian speedwell (Veronica persica); conditions: amount of applied herbicide 320 g/ha
Summary of the method: as §3

redroot pigweed [25] = assay: Test Example 4: herbicidal effect by soil treatment (Table 19, symbol N); type: in vivo, redroot pigweed (Amaranthus retroflexus); conditions: amount of applied herbicide 320 g/ha
Summary of the method: as §3

barnyard grass [26] = assay: Test Example 3: herbicidal effect by foliage application, Wagner pot (Table 18, symbol H); type: in vivo, barnyard grass (Echinochloa crus-galli)
Summary of the method: as §2

blackgrass [27] = assay: Test Example 4: herbicidal effect by soil treatment (Table 19, symbol J); type: in vivo, blackgrass (Alopecurus myosuroides); conditions: amount of applied herbicide 320 g/ha
Summary of the method: as §3

[28] = amount of applied herbicide 320 g/ha

Compound | I: wild oat, herbicidal effect grade (wild oat [1]) | H: barnyard grass, herbicidal effect grade (barnyard grass [2]) | Q: false cleavers, herbicidal effect grade (false cleavers [3]) | L: windgrass, herbicidal effect grade (windgrass [4]) | O: lambsquarters, herbicidal effect grade (lambsquarters [5]) | Q: false cleavers, herbicidal effect grade (false cleavers [6]) | I: wild oat, herbicidal effect grade (wild oat [7]) | L: windgrass, herbicidal effect grade (windgrass [8]) | G: green foxtail, herbicidal effect grade (green foxtail [9]) | F: southern crabgrass, herbicidal effect grade (southern crabgrass [10]) | G: green foxtail, herbicidal effect grade (green foxtail [11]) | J: blackgrass, herbicidal effect grade (blackgrass [12]) | K: Italian ryegrass, herbicidal effect grade (Italian ryegrass [13]) | P: chickweed, herbicidal effect grade (chickweed [14]) | N: redroot pigweed, herbicidal effect grade (redroot pigweed [15]) | M: velvetleaf, herbicidal effect grade (velvetleaf [16]) | H: barnyard grass, herbicidal effect grade (barnyard grass [17]) | M: velvetleaf, herbicidal effect grade (velvetleaf [18]) | R: persian speedwell, herbicidal effect grade (persian speedwell [19]) | P: chickweed, herbicidal effect grade (chickweed [20]) | other results
CCCC(=O)Oc1c(C)nn(C)c(=O)c1-c1c(-c2ccc(F)cc2)sc2cc(Cl)ccc12 [3-032] | 5 (Herbicidal rate of 90% or more (almost completely withered)) | 0 (Herbicidal rate of 5% or less (almost no effect)) | 0 (Herbicidal rate of 5% or less (almost no effect)) | 5 (Herbicidal rate of 90% or more (almost completely withered)) | 4 (Herbicidal rate of 70% or more and less than 90%) | 3 (Herbicidal rate of 40% or more and less than 70%) | 0 (Herbicidal rate of 5% or less (almost no effect)) | 3 (Herbicidal rate of 40% or more and less than 70%) | 0 (Herbicidal rate of 5% or less (almost no effect)) | 0 (Herbicidal rate of 5% or less (almost no effect)) | 4 (Herbicidal rate of 70% or more and less than 90%) | 4 (Herbicidal rate of 70% or more and less than 90%) | 0 (Herbicidal rate of 5% or less (almost no effect)) | 5 (Herbicidal rate of 90% or more (almost completely withered)) | 5 (Herbicidal rate of 90% or more (almost completely withered)) | 4 (Herbicidal rate of 70% or more and less than 90%) | 4 (Herbicidal rate of 70% or more and less than 90%) | 0 (Herbicidal rate of 5% or less (almost no effect)) | 5 (Herbicidal rate of 90% or more (almost completely withered)) | 4 (Herbicidal rate of 70% or more and less than 90%) | herbicidal effect on E: rice flat sedge (rice flat sedge; [28]): 3 (Herbicidal rate of 40% or more and less than 70%); herbicidal effect on D: Chinese sprangletop (Chinese sprangletop; [28]): 3 (Herbicidal rate of 40% or more and less than 70%); K: Italian ryegrass, herbicidal effect grade (Italian ryegrass [21]): 4 (Herbicidal rate of 70% or more and less than 90%); F: southern crabgrass, herbicidal effect grade (southern crabgrass [22]): 4 (Herbicidal rate of 70% or more and less than 90%); O: lambsquarters, herbicidal effect grade (lambsquarters [23]): 4 (Herbicidal rate of 70% or more and less than 90%); R: persian speedwell, herbicidal effect grade (persian speedwell [24]): 5 (Herbicidal rate of 90% or more (almost completely withered)); N: redroot pigweed, herbicidal effect grade (redroot pigweed [25]): 4 (Herbicidal rate of 70% or more and less than 90%); herbicidal effect on H: barnyard grass (barnyard grass [26]; [28]): 5 (Herbicidal rate of 90% or more (almost completely withered)); J: blackgrass, herbicidal effect grade (blackgrass [27]): 0 (Herbicidal rate of 5% or less (almost no effect))
CCCC(=O)Oc1c(C)nn(C)c(=O)c1-c1c(-c2ccc(OC)cc2)sc2cc(Cl)ccc12 [3-038] | 0 (Herbicidal rate of 5% or less (almost no effect)) | 0 (Herbicidal rate of 5% or less (almost no effect)) | 0 (Herbicidal rate of 5% or less (almost no effect)) | 0 (Herbicidal rate of 5% or less (almost no effect)) | 3 (Herbicidal rate of 40% or more and less than 70%) | 0 (Herbicidal rate of 5% or less (almost no effect)) | 0 (Herbicidal rate of 5% or less (almost no effect)) | 0 (Herbicidal rate of 5% or less (almost no effect)) | 0 (Herbicidal rate of 5% or less (almost no effect)) | 0 (Herbicidal rate of 5% or less (almost no effect)) | 0 (Herbicidal rate of 5% or less (almost no effect)) | 0 (Herbicidal rate of 5% or less (almost no effect)) | 0 (Herbicidal rate of 5% or less (almost no effect)) | 3 (Herbicidal rate of 40% or more and less than 70%) | 1 (Herbicidal rate of 5% or more and less than 20%) | 3 (Herbicidal rate of 40% or more and less than 70%) | 0 (Herbicidal rate of 5% or less (almost no effect)) | 0 (Herbicidal rate of 5% or less (almost no effect)) | 3 (Herbicidal rate of 40% or more and less than 70%) | 1 (Herbicidal rate of 5% or more and less than 20%) | herbicidal effect on rice flat sedge (E) (rice flat sedge; 320 g/ha): 3 (Herbicidal rate of 40% or more and less than 70%); herbicidal effect on Chinese sprangletop (D) (Chinese sprangletop; 320 g/ha): 1 (Herbicidal rate of 5% or more and less than 20%); K: Italian ryegrass, herbicidal effect grade (Italian ryegrass [21]): 0 (Herbicidal rate of 5% or less (almost no effect)); F: southern crabgrass, herbicidal effect grade (southern crabgrass [22]): 0 (Herbicidal rate of 5% or less (almost no effect)); O: lambsquarters, herbicidal effect grade (lambsquarters [23]): 3 (Herbicidal rate of 40% or more and less than 70%); R: persian speedwell, herbicidal effect grade (persian speedwell [24]): 2 (Herbicidal rate of 20% or more and less than 40%); N: redroot pigweed, herbicidal effect grade (redroot pigweed [25]): 1 (Herbicidal rate of 5% or more and less than 20%); herbicidal effect on barnyard grass (H) (barnyard grass [26]; 320 g/ha): 3 (Herbicidal rate of 40% or more and less than 70%); J: blackgrass, herbicidal effect grade (blackgrass [27]): 0 (Herbicidal rate of 5% or less (almost no effect))
